Columns and labels:
[1] = test system: Erysiphe graminis (powdery mildew); assay: Control of powdery mildew on wheat plants, spraying one day after inoculation; type: in vivo; details: sprayed one day after inoculation
Method: (§1) Wheat plants were inoculated with Erysiphe graminis (powdery mildew). Two days after inoculation, they were sprayed with fluquinconazole, obtained by diluting with water to the desired concentration, a suspension concentrate comprising 10% by weight active ingredient, or azoxystrobin obtained by diluting with water to the desired concentration, the commercial product sold under the trade name "Amistar", or mixtures of these. One week after inoculation, the wheat was assessed for control of disease. To indicate the existence of synergism between the active components the results were treated in the manner described by Colby S.R., "Calculating Synergistic and Antagonistic Responses of Herbicide Combinations" in Weeds 1967 15, 20-22). In this method the "expected" percent control of growth, E, of the combination compared with untreated control is given by the equation E = A + F -(AF)/(100) [formula] where A is the % control by azoxystrobin used alone at a given concentration and F is the % control by fluquinconazole, used alone at a given concentration. […] In the table, component "az" is azoxystrobin and "fq" is fluquinconazole. Table 1 In a similar manner, Example 1 was repeated with spraying one day after inoculation. The results are as follows Table 2

[2] = test system: Erysiphe graminis (powdery mildew); assay: Control of powdery mildew on wheat plants, spraying two days after inoculation; type: in vivo; details: sprayed two days after inoculation, assessed one week after inoculation
Method: as §1, with “fluquinconazole.” for “fluquinconazole. Table 1 In a similar manner, Example 1 was repeated with spraying one day after inoculation. The results are as follows Table 2”

Row | SMILES | % Control Observed ([1]; az 31.25 g cpd/ha) [%] | % Control Observed ([1]; az 62.5 g cpd/ha) [%] | % Control Observed ([2]; az 31.25 g cpd/ha) [%] | % Control Observed ([2]; az 62.5 g cpd/ha) [%] | % Control Observed ([2]; az 125 g cpd/ha) [%] | % Control Observed ([2]; az 187.5 g cpd/ha) [%] | % Control Observed ([1]; fq 15.25 g cpd/ha) [%] | % Control Observed ([1]; fq 31.25 g cpd/ha) [%] | % Control Observed ([2]; fq 15.25 g cpd/ha) [%] | % Control Observed ([2]; fq 31.25 g cpd/ha) [%]
1 | CO/C=C(/C(=O)OC)c1ccccc1Oc1cc(Oc2ccccc2C#N)ncn1 [az, methyl (E)-2-{2-[6-(2-cyanophenoxy)pyrimidin-4-yloxy]phenyl}-3-methoxyacrylate] | 0 | 0 | 10 | 12 | 42 | 62 | – | – | – | –
2 | O=c1c2cc(F)ccc2nc(-n2cncn2)n1-c1ccc(Cl)cc1Cl [fq, 3-(2,4-dichlorophenyl)-6-fluoro-2-((1H)-1,2,4-triazol-1-yl)-4(3H)-quinazolinone] | – | – | – | – | – | – | 12 | 68 | 24 | 70

From patent EP1021088B1, “FUNGICIDE MIXTURES BASED ON FLUQUINCONAZOLE” (Aventis CropScience UK Limited, priority 1997, dated 1999)
